US9238656B2, “Imidazo[4,5-b]pyridine derivatives as ALK and JAK modulators for the treatment of proliferative disorders” (priority 2012, dated 2016)

How the values were obtained:
[1] = molecular target: baculovirus-expressed ALK (Homo sapiens, UniProt Q9UM73); test: ALK kinase inhibition, TRF/ELISA; type: biochemical; conditions: read-out: ALK Potency
How it was run: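 Plates were coated with GST-PLC-γ substrate (10 μg/mL) and the reaction was started with 30 ng/mL ALK, running 15 min at 37° C. Phosphotyrosine was detected by time-resolved fluorescence with Eu-labeled PT66 antibody. IC50s came from variable-slope sigmoidal fits of percent inhibition versus log concentration.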

[2] = molecular target: baculovirus-expressed JAK2 kinase (Homo sapiens, UniProt O60674); test: biochemical; conditions: 0.2 μM ATP; read-out: JAK2 Potency
Chain of baculovirus-expressed JAK2 kinase (O60674 whole entry): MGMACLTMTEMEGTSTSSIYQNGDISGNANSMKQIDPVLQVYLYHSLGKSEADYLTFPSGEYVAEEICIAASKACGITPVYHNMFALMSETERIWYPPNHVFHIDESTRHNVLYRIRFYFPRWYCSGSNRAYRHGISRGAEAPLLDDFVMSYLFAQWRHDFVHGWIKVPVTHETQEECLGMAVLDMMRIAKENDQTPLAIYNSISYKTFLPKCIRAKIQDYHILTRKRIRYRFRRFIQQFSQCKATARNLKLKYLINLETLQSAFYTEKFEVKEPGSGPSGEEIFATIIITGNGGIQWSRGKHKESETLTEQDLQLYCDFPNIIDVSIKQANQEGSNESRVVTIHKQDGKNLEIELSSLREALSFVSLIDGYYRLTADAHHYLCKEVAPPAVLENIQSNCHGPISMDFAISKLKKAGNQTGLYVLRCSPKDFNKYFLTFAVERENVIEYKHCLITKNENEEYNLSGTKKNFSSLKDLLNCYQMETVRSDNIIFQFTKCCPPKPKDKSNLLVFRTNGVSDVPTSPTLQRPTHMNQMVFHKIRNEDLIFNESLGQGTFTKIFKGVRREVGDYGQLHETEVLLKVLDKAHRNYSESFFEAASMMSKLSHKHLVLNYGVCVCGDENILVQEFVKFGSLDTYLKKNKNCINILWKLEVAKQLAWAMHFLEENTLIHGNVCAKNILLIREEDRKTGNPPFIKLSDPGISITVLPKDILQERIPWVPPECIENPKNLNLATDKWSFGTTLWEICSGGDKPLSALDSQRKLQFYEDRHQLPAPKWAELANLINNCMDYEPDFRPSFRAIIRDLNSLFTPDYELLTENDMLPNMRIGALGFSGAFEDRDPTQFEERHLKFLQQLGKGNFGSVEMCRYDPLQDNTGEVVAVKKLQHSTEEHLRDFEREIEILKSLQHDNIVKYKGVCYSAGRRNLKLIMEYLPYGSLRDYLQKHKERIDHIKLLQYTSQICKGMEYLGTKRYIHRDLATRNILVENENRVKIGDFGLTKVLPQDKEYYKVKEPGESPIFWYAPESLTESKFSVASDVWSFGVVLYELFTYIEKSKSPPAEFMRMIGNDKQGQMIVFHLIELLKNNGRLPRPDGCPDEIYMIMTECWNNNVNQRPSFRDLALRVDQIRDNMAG
How it was run: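 Time-resolved fluorescence kinase assay using 15 ng/mL baculovirus-expressed JAK2 on Neutravidin-captured biotinylated 15-mer peptide substrate, reaction 20 min at room temperature. IC50 from percent inhibition versus log concentration, sigmoidal variable-slope fit.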

[3] = 30 mg BID, kidney allograft recipients; cited from earlier work

Chain of baculovirus-expressed ALK (Q9UM73 19-1620): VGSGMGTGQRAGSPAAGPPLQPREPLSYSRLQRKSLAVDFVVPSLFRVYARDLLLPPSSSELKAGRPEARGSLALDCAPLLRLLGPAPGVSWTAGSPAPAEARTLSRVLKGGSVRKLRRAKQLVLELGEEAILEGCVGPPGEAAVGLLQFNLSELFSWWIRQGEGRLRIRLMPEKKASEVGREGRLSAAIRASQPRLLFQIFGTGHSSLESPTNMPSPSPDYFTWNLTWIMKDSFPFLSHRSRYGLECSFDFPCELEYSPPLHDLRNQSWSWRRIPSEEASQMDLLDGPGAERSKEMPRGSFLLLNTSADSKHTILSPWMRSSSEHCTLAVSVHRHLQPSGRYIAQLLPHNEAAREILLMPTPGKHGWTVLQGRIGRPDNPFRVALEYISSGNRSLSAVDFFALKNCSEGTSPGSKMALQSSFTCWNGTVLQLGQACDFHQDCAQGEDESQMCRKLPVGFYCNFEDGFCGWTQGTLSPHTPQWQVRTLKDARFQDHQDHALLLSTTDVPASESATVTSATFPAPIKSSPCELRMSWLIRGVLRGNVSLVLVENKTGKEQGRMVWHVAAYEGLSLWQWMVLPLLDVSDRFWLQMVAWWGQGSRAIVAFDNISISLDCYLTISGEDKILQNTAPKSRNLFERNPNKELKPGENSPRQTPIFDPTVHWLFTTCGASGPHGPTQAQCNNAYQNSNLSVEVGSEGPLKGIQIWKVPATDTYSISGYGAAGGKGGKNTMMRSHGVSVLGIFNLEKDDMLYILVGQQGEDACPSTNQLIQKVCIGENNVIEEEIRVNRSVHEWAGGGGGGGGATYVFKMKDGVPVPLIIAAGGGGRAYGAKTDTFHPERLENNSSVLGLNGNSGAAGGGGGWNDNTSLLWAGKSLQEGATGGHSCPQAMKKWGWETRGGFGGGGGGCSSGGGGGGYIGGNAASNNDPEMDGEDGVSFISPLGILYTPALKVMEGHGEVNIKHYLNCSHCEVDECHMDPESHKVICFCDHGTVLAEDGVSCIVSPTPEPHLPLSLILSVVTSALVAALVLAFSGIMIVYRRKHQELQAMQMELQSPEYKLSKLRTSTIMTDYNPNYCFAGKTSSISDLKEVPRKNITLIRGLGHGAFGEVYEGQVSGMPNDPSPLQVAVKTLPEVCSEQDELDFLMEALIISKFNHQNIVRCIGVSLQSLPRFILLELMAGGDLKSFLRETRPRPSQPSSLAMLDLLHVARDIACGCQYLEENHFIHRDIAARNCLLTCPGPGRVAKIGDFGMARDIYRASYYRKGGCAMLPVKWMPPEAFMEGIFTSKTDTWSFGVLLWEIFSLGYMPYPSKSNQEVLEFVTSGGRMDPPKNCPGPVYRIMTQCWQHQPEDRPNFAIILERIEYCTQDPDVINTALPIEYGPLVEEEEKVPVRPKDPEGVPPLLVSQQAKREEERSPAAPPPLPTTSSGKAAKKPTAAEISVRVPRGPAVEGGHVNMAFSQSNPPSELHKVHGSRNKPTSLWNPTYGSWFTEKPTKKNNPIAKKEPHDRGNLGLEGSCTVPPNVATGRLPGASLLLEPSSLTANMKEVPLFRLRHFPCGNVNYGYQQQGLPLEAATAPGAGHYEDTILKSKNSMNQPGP

| Structure (SMILES) | IC50 [1] [nM] | IC50 [2] [nM] | melting point [°C] | subjects developed polyoma-associated nephropathy [3] [%] |
| --- | --- | --- | --- | --- |
| CN(C)c1cccc(-c2nc3c(N[C@H]4[C@@H](C(N)=O)[C@@H]5C=C[C@H]4C5)c(Br)cnc3[nH]2)c1 [Compound LXXVII, (1S,2S,3R,4R)-3-[6-Bromo-2-(3-dimethylamino-phenyl)-3H-imidazo[4,5-b]pyridin-7-ylamino]-bicyclo[2.2.1]hept-5-ene-2-carboxylic acid amide] | < 100 | < 100 | 220 to 221 | – |
| NC(=O)[C@@H]1[C@H](Nc2ccnc3[nH]c(-c4ccc(CN5CCOCC5)cc4)nc23)[C@H]2C=C[C@@H]1C2 [Compound XC, (1S,2S,3R,4R)-3-[2-(4-Morpholin-4-ylmethyl-phenyl)-3H-imidazo[4,5-b]pyridin-7-ylamino]-bicyclo[2.2.1]hept-5-ene-2-carboxylic acid amide] | > 10000 | 1000 to 10000 | 240 to 244 | – |
| NC(=O)[C@@H]1[C@H](Nc2c(Br)cnc3[nH]c(-c4ccoc4)nc23)[C@H]2C=C[C@@H]1C2 [Compound CVIII, (1S,2S,3R,4R)-3-(6-Bromo-2-furan-3-yl-3H-imidazo[4,5-b]pyridin-7-ylamino)-bicyclo[2.2.1]hept-5-ene-2-carboxylic acid amide] | 100 to 1000 | < 100 | 231 to 232 | – |
| NC(=O)[C@@H]1[C@H](Nc2c(Br)cnc3[nH]c(-c4ccc(N5CCOCC5)nc4)nc23)[C@H]2C=C[C@@H]1C2 [Compound CXII, (1S,2S,3R,4R)-3-[6-Bromo-2-(6-morpholin-4-yl-pyridin-3-yl)-3H-imidazo[4,5-b]pyridin-7-ylamino]-bicyclo[2.2.1]hept-5-ene-2-carboxylic acid amide] | < 100 | < 100 | 288 to 290 | – |
| C[C@@H]1CCN(C(=O)CC#N)C[C@@H]1N(C)c1ncnc2[nH]ccc12 [CP-690,550] | – | – | – | 20 |
| C=CCc1ccc(-c2nc3c(N[C@H]4[C@@H](C(N)=O)[C@@H]5C=C[C@H]4C5)c(Cl)cnc3[nH]2)c(OC)c1 [Compound LVI, (1S,2S,3R,4R)-3-[2-(4-Allyl-2-methoxy-phenyl)-6-chloro-3H-imidazo[4,5-b]pyridine-7-ylamino]-bicyclo[2.2.1]hept-5-ene-2-carboxylic acid amide] | < 100 | < 100 | 123 to 126 | – |
| NC(=O)[C@@H]1[C@H](Nc2c(Br)cnc3[nH]c(-c4cccc(N5CCOCC5)c4)nc23)[C@H]2C=C[C@@H]1C2 [Compound LXXXIII, (1S,2S,3R,4R)-3-[6-Bromo-2-(3-morpholin-4-yl-phenyl)-3H-imidazo[4,5-b]pyridin-7-ylamino]-bicyclo[2.2.1]hept-5-ene-2-carboxylic acid amide] | < 100 | < 100 | 232 to 234 | – |
| CC(O)CN1CCN(C(=O)c2ccc(-c3nc4c(N[C@H]5[C@@H](C(N)=O)[C@@H]6C=C[C@H]5C6)c(Cl)cnc4[nH]3)cc2)CC1 (stereo partly drawn) [Compound CCXXIV, (1S,2S,3R,4R)-3-(6-chloro-2-(4-(4-(2-hydroxypropyl)piperazine-1-carbonyl)phenyl)-3H-imidazo[4,5-b]pyridine-7-ylamino)pyridin[2.2.1]hept-5-ene-2-carboxamide] | < 100 | < 100 | 224 | – |
| COc1cc(N(C)C)ccc1-c1nc2c(N[C@H]3[C@@H](C(N)=O)[C@@H]4C=C[C@H]3C4)c(Br)cnc2[nH]1 [Compound LXXXIV, (1S,2S,3R,4R)-3-[6-Bromo-2-(4-dimethylamino-2-methoxy-phenyl)-3H-imidazo[4,5-b]pyridin-7-ylamino]-bicyclo[2.2.1]hept-5-ene-2-carboxylic acid amide] | < 100 | < 100 | 218 to 220 | – |
| CN(C)c1cccc(-c2nc3c(N[C@H]4[C@@H](C(N)=O)[C@@H]5C=C[C@H]4C5)ccnc3[nH]2)c1 [Compound LXXXVII, (1S,2S,3R,4R)-3-[2-(3-Dimethylamino-phenyl)-3H-imidazo[4,5-b]pyridin-7-ylamino]-bicyclo[2.2.1]hept-5-ene-2-carboxylic acid amide] | > 10000 | 1000 to 10000 | 200 to 204 | – |
| NC(=O)[C@@H]1[C@H](Nc2c(Cl)cnc3[nH]c(-c4ccc(C(=O)NCC(=O)O)cc4)nc23)[C@H]2C=C[C@@H]1C2 [Compound CCXXVIII, 2-(4-(7-((1R,2R,3S,4S)-3-carbamoylbicyclo[2.2.1]hept-5-en-2-ylamino)-6-chloro-3H-imidazo[4,5-b]pyridine-2-yl)benzamido)acetic acid] | 100 to 1000 | < 100 | 291 | – |
| COC[C@@H](O)CN1CCC(c2ccc(-c3nc4c(N[C@H]5[C@@H](C(N)=O)[C@@H]6C=C[C@H]5C6)c(Cl)cnc4[nH]3)c(OC)c2)CC1 [Compound CXIX, (1S,2S,3R,4R)-3-(6-Chloro-2-{4-[1-((S)-2-hydroxy-3-methoxy-propyl)-piperidin-4-yl]-2-methoxy-phenyl}-3H-imidazo[4,5-b]pyridin-7-ylamino)-bicyclo[2.2.1]hept-5-ene-2-carboxylic acid amide] | < 100 | < 100 | 189 to 191 | – |
| COc1ccncc1-c1nc2c(N[C@H]3[C@@H](C(N)=O)[C@@H]4C=C[C@H]3C4)c(Br)cnc2[nH]1 [Compound CIII, (1S,2S,3R,4R)-3-[6-Bromo-2-(4-methoxy-pyridin-3-yl)-3H-imidazo[4,5-b]pyridin-7-ylamino]-bicyclo[2.2.1]hept-5-ene-2-carboxylic acid amide] | < 100 | 100 to 1000 | 160 | – |
| NC(=O)[C@@H]1[C@H](Nc2c(Br)cnc3[nH]c(-c4cccnc4N4CCCC4)nc23)[C@H]2C=C[C@@H]1C2 [Compound CV, (1S,2S,3R,4R)-3-[6-Bromo-2-(2-pyrrolidin-1-yl-pyridin-3-yl)-3H-imidazo[4,5-b]pyridin-7-ylamino]-bicyclo[2.2.1]hept-5-ene-2-carboxylic acid amide] | 1000 to 10000 | 1000 to 10000 | 190 | – |
| NC(=O)[C@@H]1[C@H](Nc2c(Cl)cnc3[nH]c(-c4ccc(C(=O)NC(CO)C(=O)O)cc4)nc23)[C@H]2C=C[C@@H]1C2 (stereo partly drawn) [Compound CCXXX, 2-(4-(7-((1R,2R,3S,4S)-3-carbamoylbicyclo(2.2.1)hept-5-en-2-ylamino)-6-chloro-3H-imidazo[4,5-b]pyridine-2-yl)benzamido)-3-hydroxypropanoic acid] | 100 to 1000 | < 100 | 186 | – |
| COc1cc(CN2CCN(C[C@@H](C)O)CC2)ccc1-c1nc2c(N[C@H]3[C@@H](C(N)=O)[C@@H]4C=C[C@H]3C4)c(Cl)cnc2[nH]1 [Compound XLIV, (1S,2S,3R,4R)-3-(6-Chloro-2-{4-[4-((R)-2-hydroxypropyl)-piperazin-1-ylmethyl]-2-methoxyphenyl}-3H-imidazo[4,5-b]pyridine-7-ylamino)-bicyclo[2.2.1]hept-5-ene-2-carboxylic acid amide] | < 100 | < 100 | 157 to 159 | – |
